Experimental data reported in article PMC11547015 (International Journal of Molecular Sciences, 2024).
Where “and” joins values, the source holds several entries; their conditions need not be identical. Equal values may be shown once. Entries after “also recorded” stand apart in the source; their conditions may differ. Read-outs that look alike come from different tables or passages of the source.

Target: T1, human D2 receptor (Homo sapiens, UniProt P14416)
T1 construct: host or cells: CHO-K1
Test: Dopamine assay: functional cAMP read-out (HitHunter cAMP XS+, Gi/o agonist format)
Format: cell-based
Conditions: for EC50: CHO-K1 cells overexpressing the human D2 receptor, cAMP read-out, 25 µM forskolin, n = 2 independent experiments; for dopaminergic activity (in words): isolated compounds, D2 receptor activity assay; for change in activity on the D2 receptor relative to 7: compared with 3-epi-maslinic acid (7)
Method: Dopaminergic activity was determined with a functional assay in CHO-K1 cells overexpressing the human D2 receptor, using a cAMP read-out (Eurofins DiscoverX Corporation, Fremont, CA, USA). The cells (5000 cells/cm^2) were seeded in a total volume of 20 μL onto white 384-well microplates and incubated at 37 °C for 18 h prior to testing. cAMP modulation was determined using the DiscoverX HitHunter cAMP XS+ assay. Since the D2 receptor couples mainly to Gi/o (inhibitory towards cAMP), the assay was run in Gi/o agonist format. In brief, the cells were incubated with the samples in the presence of 25 µM forskolin to induce a response. Medium was aspirated from cells and replaced with 10 µL HBSS/10 mM Hepes (assay buffer). Intermediate dilution of sample stocks was performed in the assay buffer to generate a concentration 4-fold higher (4×) than the final in-well concentration. A total of 5 µL of 4× sample was added to the cells, followed by 5 µL 4× EC80 forskolin in the assay buffer and incubated at 37 °C for 30 min. The final DMSO concentration (vehicle) was 1%. After appropriate compound incubation, the assay signal was generated through incubation with 5 µL of cAMP XS + Ab reagent followed by 20 μL cAMP XS + ED/CL lysis cocktail for one hour followed by incubation with 20 μL cAMP XS + EA reagent for three hours at room temperature. The microplates were read following signal generation with an Envision^TM instrument (PerkinElmer, Waltham, MA, USA) for chemiluminescent signal detection.
For Gi agonist mode assays, percentage activity was calculated using the following formula: % Activity = 100% × (1 − (mean RLU of test sample − mean RLU of MAX control)/(mean RLU of vehicle control − mean RLU of MAX control)). Concentration–response curves were generated using EC50 using Graphpad Prism version 9.0 (Graphpad Software, Boston, MA, USA), and curve fitting was performed using non-linear regression analysis applying the following variable slope equation: Y = Bottom + (Top − Bottom)/(1 + 10^((LogEC50 − X) × HillSlope)).

[1] = read-out: EC50 at the D2 receptor

T1 sequence (P14416 whole entry): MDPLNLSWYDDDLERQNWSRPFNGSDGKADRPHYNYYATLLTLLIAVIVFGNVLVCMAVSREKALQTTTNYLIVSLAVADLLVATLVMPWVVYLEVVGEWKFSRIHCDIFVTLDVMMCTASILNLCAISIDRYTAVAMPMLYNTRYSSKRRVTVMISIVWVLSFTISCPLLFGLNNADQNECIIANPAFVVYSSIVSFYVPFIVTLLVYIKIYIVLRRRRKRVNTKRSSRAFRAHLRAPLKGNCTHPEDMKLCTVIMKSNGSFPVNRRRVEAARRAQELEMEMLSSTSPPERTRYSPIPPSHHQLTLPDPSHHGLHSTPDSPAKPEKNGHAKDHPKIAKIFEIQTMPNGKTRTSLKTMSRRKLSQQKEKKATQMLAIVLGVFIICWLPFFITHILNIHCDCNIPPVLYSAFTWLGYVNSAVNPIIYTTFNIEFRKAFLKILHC

SMILES	EC50 [1]	dopaminergic activity (in words)	EC50 (EC50 at the D2 receptor)	other results
C[C@H]1[C@H](C)CC[C@]2(C(=O)O)CC[C@]3(C)C(=CC[C@@H]4[C@@]5(C)CC[C@H](O)C(C)(C)[C@@H]5CC[C@]43C)[C@H]12 [ursolic acid, reference compound]	≥ 50 µM			
C[C@@H]1CC[C@]2(C(=O)O)CC[C@]3(C)C(=CC[C@@H]4[C@@]5(C)C[C@@H](O)[C@@H](O)C(C)(C)[C@@H]5CC[C@]43C)[C@@H]2[C@]1(C)O [compound 11, Euscaphic acid]	> 50 µM			
C=CC(C)(O)CC[C@H]1[C@@]2(C)CCCC(C)(C)[C@@H]2CC[C@@]1(C)O (stereo partly shown) [compound 5, Viteagnusin C]	> 50 µM	either negligible or no dopaminergic activity; also recorded: either weak or no dopaminergic activity		
CC1(C)CC[C@]2(C(=O)O)CC[C@]3(C)C(=CC[C@@H]4[C@@]5(C)C[C@@H](O)[C@H](O)C(C)(C)[C@@H]5CC[C@]43C)[C@@H]2C1 [compound 8, Maslinic acid]		active	21.3 µM	change in activity on the D2 receptor relative to 7: 4 fold
C=CC(C)(O)CC[C@@]1(C)C2=C([C@H](OC(C)=O)[C@H](OC(C)=O)[C@H]1C)C(C)(C)CCC2 (stereo partly shown) [compound 6, Vitetrifolin D]		either negligible or no dopaminergic activity; also recorded: either weak or no dopaminergic activity	> 50 µM	
C[C@H]1[C@H](C)CC[C@]2(C(=O)O)CC[C@]3(C)C(=CC[C@@H]4[C@@]5(C)C[C@@H](O)[C@@H](O)C(C)(C)[C@@H]5CC[C@]43C)[C@H]12 [compound 9, 3-epi-Corosolic acid]		active	10.7 µM	change in activity on the D2 receptor relative to 7: 2 fold
C=CC(C)(O)CC[C@@H]1[C@@]2(C)CCCC(C)(C)[C@@H]2CC[C@]1(C)O (stereo partly drawn) [compound 4, 8-epi-Sclareol]	24.3 µM	either negligible or no dopaminergic activity; also recorded: either weak or no dopaminergic activity		
CC1(C)CC[C@]2(C(=O)O)CC[C@]3(C)C(=CC[C@@H]4[C@@]5(C)C[C@@H](O)[C@H](O)[C@@](C)(CO)[C@@H]5CC[C@]43C)[C@@H]2C1 [arjunolic acid, reference compound]	≥ 50 µM			
CC1(C)CC[C@]2(C(=O)O)CC[C@]3(C)C(=CC[C@@H]4[C@@]5(C)C[C@@H](O)[C@@H](O)C(C)(C)[C@@H]5CC[C@]43C)[C@@H]2C1 [compound 7, 3-epi-Maslinic acid]		active	5.1 µM	
C[C@@H]1CC[C@]2(C(=O)O)CC[C@]3(C)C(=CC[C@@H]4[C@@]5(C)C[C@@H](O)[C@H](O)C(C)(C)[C@@H]5CC[C@]43C)[C@@H]2[C@]1(C)O [compound 12, Tormentic acid]	> 50 µM			
CC(=O)O[C@@H]1C[C@@H](C)[C@](O)(CCC2=CC(=O)OC2O)[C@@]2(C)CCCC(C)(C)[C@H]12 (stereo partly shown) [compound 1, Viteagnusin I]			6.61 µM and 6.6 µM	IC50: 6.6 µM
CC(=O)O[C@@H]1C[C@@H](C)[C@](O)(CCC2=CC(=O)OC2)[C@@]2(C)CCCC(C)(C)[C@H]12 [compound 3, Vitexilactone]	> 50 µM			
CC(=O)O[C@@H]1C[C@@H](C)[C@](O)(CCc2ccoc2)[C@@]2(C)CCCC(C)(C)[C@H]12 [compound 2, Rotundifuran]	12.8 µM			
C[C@H]1[C@H](C)CC[C@]2(C(=O)O)CC[C@]3(C)C(=CC[C@@H]4[C@@]5(C)C[C@@H](O)[C@H](O)C(C)(C)[C@@H]5CC[C@]43C)[C@H]12 [compound 10, Corosolic acid]			> 50 µM	change in activity on the D2 receptor relative to 9 (epimers 9 and 10, differing at C3): > 5 fold
CC1(C)CC[C@]2(C(=O)O)CC[C@]3(C)C(=CC[C@@H]4[C@@]5(C)CC[C@H](O)C(C)(C)[C@@H]5CC[C@]43C)[C@@H]2C1 [oleanolic acid, reference compound]			≥ 50 µM	
